Source: US20160243015A1, “SKIN LIGHTENING COMPOSITION” (Conopco, Inc., d/b/a UNILEVER, priority 2013, published 2016)

Legend:
human tyrosinase enzyme = target: T1, human tyrosinase enzyme (Homo sapiens, UniProt P14679); assay: Tyrosinase inhibition assay (melanocyte lysate, L-DOPA/MBTH); format: biochemical
T1 construct: Human neonatal darkly pigmented melanocytes lysate was used as a source of tyrosinase enzyme; host or cells: human neonatal darkly pigmented melanocytes (crude NP-40 lysate supernatant)
T1 sequence (P14679 19-529): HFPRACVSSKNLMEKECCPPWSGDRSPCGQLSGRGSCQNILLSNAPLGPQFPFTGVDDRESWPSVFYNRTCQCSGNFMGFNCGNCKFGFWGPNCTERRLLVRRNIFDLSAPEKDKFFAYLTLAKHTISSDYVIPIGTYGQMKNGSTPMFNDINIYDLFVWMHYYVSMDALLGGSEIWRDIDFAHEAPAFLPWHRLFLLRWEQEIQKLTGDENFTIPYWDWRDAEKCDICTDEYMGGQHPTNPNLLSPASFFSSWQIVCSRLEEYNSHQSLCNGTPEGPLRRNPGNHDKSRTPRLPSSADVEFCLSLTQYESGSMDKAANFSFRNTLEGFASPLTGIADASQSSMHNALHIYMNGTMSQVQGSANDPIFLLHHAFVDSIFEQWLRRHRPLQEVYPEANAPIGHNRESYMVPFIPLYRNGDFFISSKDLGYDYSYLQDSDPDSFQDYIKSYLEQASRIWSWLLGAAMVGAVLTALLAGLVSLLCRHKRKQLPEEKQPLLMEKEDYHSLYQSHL
Description: Human neonatal darkly pigmented melanocytes lysate was used as a source of tyrosinase enzyme. The human melanocyte cells were purchased from Cascade Biologics (Code: C-202-5C) and cultured using standard methods. A confluent 25 cm^2 flask of melanocytes was washed with 2 ml of ice-cold PBS (phosphate buffered saline), followed by incubation with 1 ml of (0.025% w/v) Trypsin (0.01% w/v) EDTA (ethylenediamine tetraacetic acid) solution for 2 minutes at 37° C. to release the adherent cells. Trypsin was neutralized by the addition of 3 ml ‘neutralizer’ solution (sterile PBS solution containing 0.5% w/vnewborn bovine serum). […] The protein content in the lysate was measured by the Bradford reagent method (bovine serum albumin standard). […]
The solution phase tyrosinase activity assay was initiated by mixing 50 μl of 50 mM potassium phosphate buffer (pH 6.8), 60 μl of 10 mM MBTH (3-Methyl-2-benzothiazolinonhydrazon hydrochloride hydrate) in 10 mM potassium phosphate buffer, 30 μl of 10 mM L-DOPA (L-3,4-dihydroxyphenylalanine) in 10 mM potassium phosphate buffer, 4 μl of melanocytic cell extract (about 2 μg/μl protein), and 6 μl of distilled water (to make up the volume to 150 μl), and incubated for about 1 hour at 37° C. […] Then 200 μl of the supernatant was transferred to a 96-well flat-bottom plate, and the OD (optical density) read in a TECAN plate-reader (540 nm transmission). […]

[1] = system: Melanoderm cultures (human keratinocytes and melanocytes), melanin production; assay: Assay of pigment production by Living Skin Equivalents (Melanoderm); format: cell-based; parameters: inhibition: dose or concentration left out as unconfirmed; conditions: 14 days, melanin normalized to protein levels; for % inhibition of melanin production compared to vehicle control: 10 μM; for inhibition: Homo sapiens, 336 h, read-out: % inhibition of melanin production compared to vehicle control
Description: Assay of pigment production by Living Skin Equivalents (Melanoderms™)
So called reconstructed pigmented ‘skin’ cultures containing keratinocytes and melanocytes are commercially available and, for example, can be purchased from MatTek Corp, 200, Homer Avenue, Ashland, Mass., USA, under the trade name Melanoderm™. Melanoderms™ (catalogue reference MEL-300) containing melanocytes from […] donor skin were maintained in EPI-100-NMM113 media following the manufacturer's instructions and using standard methods for the maintenance of cultured mammalian cells under aseptic conditions. The Melanoderm™ cultures were treated with test agents for a total of 14 days. During the 14 day culture period the melanocytes in the Melanoderm™ cultures synthesise melanin in specialised vesicular structures called melanosomes. The pigmented melanosomes are transferred to the adjacent keratinocytes and the transferred-melanosomes tend to accumulate over the nucleus of the keratinocytes. This process is the same as occurs in skin in vivo and accordingly the Melanoderm™ culture is considered to be a very good test ‘skin tissue’ to mimic the effect of the skin pigmentation process in vivo. A compound that leads to a reduction in melanin production in the Melanoderm™ culture over 14 days by 10% or more is considered to have a positive pigment reducing effect. It is important that the reduction in pigment occurs without substantive loss of cell viability such that the inhibitory effect of the test compound is due to its biological function rather than due to cell toxicity.
Culture media changes and re-dosing of compounds at selected concentrations took place every 2 or 3 days during the test period. Melanoderm™ cultures were also treated with control materials including the vehicle (dimethylsulphoxide (DMSO)) used to dissolve the test material and a positive control material known to lead to the synthesis of reduced amounts of melanin in the cultures. 4-ethylresorcinol was used as a positive control. After 14 days culture, transmitted-light microscopy images were captured for every culture using a Leica DM IL microscope at ×20 magnification.
The cell viability of the cultures was assessed using the so called WST-1 (Water Soluble Tetrazolium Salt-1) assay purchased from Roche Applied Science and following the manufacturer's instructions. The stable tetrazolium salt WST-1 is cleaved to a soluble formazan dye by a complex cellular mechanism that occurs primarily at the cell surface. This bioreduction is largely dependent on the glycolytic production of NADPH in viable cells. Therefore, the amount of soluble formazan dye formed in the culture medium directly correlates to the number of metabolically active cells in the culture. Cultures were incubated with WST-1 in the medium for 1 hour and production of formazan measured at 450 nm using a spectrophotometer plate reader, e.g. a BMG Labtech FLUOstar plate reader. Cultures were considered ‘viable’ if they generated greater than 80% of the control value of formazan product. Subsequently the culture was washed briefly in phosphate buffer solution (PBS) and total melanin and protein extracted together from each culture using 250 μl Solvable™ (Perkin Elmer product 6NE9100) reagent at 60° C. overnight as recommended by the manufacturer. The total protein content using a sample of the extracts was determined using the so called BCA (bicinchoninic acid) assay. The BCA assay may be purchased from Pierce Chemical Company and conducted following the manufacturer's instructions. Melanin was determined by measuring the absorbance at 485 nm, for example using a BMG Labtech FLUOstar plate reader. The amount of melanin extracted from each culture was determined by reference to a standard synthetic-melanin curve (Sigma Aldrich Chemical Company catalogue reference M8631). […]

| Compound | inhibition at 10 µM (human tyrosinase enzyme) | % inhibition of melanin production compared to vehicle control [1] | inhibition [1] |
| --- | --- | --- | --- |
| CCc1ccc(O)cc1O [4-ethyl resorcinol] | 29% | – | – |
| CC(C)(C)c1ccc(OCC(=O)NC(=S)Nc2ccc(I)cn2)cc1 [S19, N-[[(5-iodo-2-pyridinyl)-amino]-thioxomethyl]-2-[4-(1,1-dimethylethyl)phenoxy]-acetamide] | – | 22% | 20 to 30% |
| O=C(COc1ccc(Cl)cc1Cl)NC(=S)Nc1ccc(I)cn1 [S17, N-[[(5-iodo-2-pyridinyl)-amino]-thioxomethyl]-2-(2,4-dichlorophenoxy)-acetamide] | – | 43% | 40 to 50% |
| O=C(COc1ccc(Cl)cc1)NC(=S)Nc1ccc(I)cn1 [S18, N-[[(5-iodo-2-pyridinyl)-amino]-thioxomethyl]-2-(4-chlorophenoxy)-acetamide] | – | 28% | 20 to 30% |
| O=C(COc1ccccc1)NC(=S)Nc1ccc(Cl)cn1 [S12, N-[[(5-chloro-2-pyridinyl)-amino]-thioxomethyl]-2-phenoxyacetamide] | – | 47% | 40 to 50% |
| Cc1cccc(OCC(=O)NC(=S)Nc2ccc(I)cn2)c1 [S20, N-[[(5-iodo-2-pyridinyl)-amino]-thioxomethyl]-2-(3-methylphenoxy)-acetamide] | – | 22% | 20 to 30% |
| Cc1ccc(OCC(=O)NC(=S)Nc2ccc(Cl)cn2)cc1 [S13, N-[[(5-chloro-2-pyridinyl)-amino]-thioxomethyl]-2-(4-methylphenoxy)-acetamide] | – | 35% | 30 to 40% |
| Cc1cc(OCC(=O)NC(=S)Nc2ccc(I)cn2)cc(C)c1Cl [S15, N-[[(5-iodo-2-pyridinyl)-amino]-thioxomethyl]-2-(4-chloro-3,5-dimethylphenoxy)-acetamide] | – | 43% | 40 to 50% |
| O=C(COc1ccccc1)NC(=S)Nc1ccccn1 [S14, N-[[2-pyridinylamino]-thioxomethyl]-2-phenoxyacetamide] | – | – | 10% |
| O=C(COc1ccccc1)NC(=S)Nc1ccc(I)cn1 [NC-0475, N-[[(5-iodo-2-pyridinyl)-amino]-thioxomethyl]-2-phenoxyacetamide] | – | 53% | > 50% |
| Cc1nc(NC(=S)NC(=O)COc2ccccc2)ccc1I [S21, N-[[(5-iodo-6-methyl-2-pyridiny)lamino]-thioxomethyl]-2-phenoxyacetamide] | – | 39% | 30 to 40% |
| CC(C)c1ccc(OCC(=O)NC(=S)Nc2ccc(Cl)cn2)cc1 [S16, N-[[(5-chloro-2-pyridinyl)-amino]-thioxomethyl]-2-[4-(1-methylethyl)-phenoxy]-acetamide] | – | 38% | 30 to 40% |
